Several values for one entry are separate records, joined by “and”; a condition that tells them apart may be missing. Equal values may be shown once. Read-outs that look alike come from different tables or passages of the source. Marks after values point to notes of the source that are not given here.
Key:
[1] = parameters: method as in Camurri et al. [13]; conditions: standard mixture for calibration; ref Camurri et al. [13]; cited from earlier work
[2] = molecular target: T1, eqBChE (equine butyrylcholinesterase) (Equus caballus, UniProt P81908); assay: biochemical
T1 construct: butyrylcholinesterase (eqBuChE, E.C. 3.1.1.8, from equine serum); purchased Sigma Aldrich; host or cells: equine serum
T1 sequence (P81908 whole entry): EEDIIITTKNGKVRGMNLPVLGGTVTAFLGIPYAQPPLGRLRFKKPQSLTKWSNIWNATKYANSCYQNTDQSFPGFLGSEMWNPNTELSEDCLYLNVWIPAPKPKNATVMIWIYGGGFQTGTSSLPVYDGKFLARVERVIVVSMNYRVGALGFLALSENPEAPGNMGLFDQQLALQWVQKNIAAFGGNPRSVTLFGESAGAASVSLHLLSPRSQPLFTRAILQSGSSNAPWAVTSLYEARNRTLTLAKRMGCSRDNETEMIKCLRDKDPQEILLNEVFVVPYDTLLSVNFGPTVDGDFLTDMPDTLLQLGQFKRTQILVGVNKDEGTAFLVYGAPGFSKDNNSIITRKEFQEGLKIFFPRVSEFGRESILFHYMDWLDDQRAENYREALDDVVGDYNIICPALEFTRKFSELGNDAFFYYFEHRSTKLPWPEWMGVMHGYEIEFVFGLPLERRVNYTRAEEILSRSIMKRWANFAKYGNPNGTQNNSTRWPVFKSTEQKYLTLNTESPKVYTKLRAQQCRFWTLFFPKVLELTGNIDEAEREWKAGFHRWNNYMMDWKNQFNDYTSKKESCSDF
Description: (§1) The eeAChE and eqBChE inhibitory activities of the compounds under study were determined following the Ellman’s method [32, 33]
(§2) Substrate solutions (ATCI or BCTI) were prepared in deionized water (conductivity ˂ 0.1 µS.cm-
(§3) Evaluation of eel acetylcholinesterase and equine butyrylcholinesterase inhibitory
(§4) The eeAChE and eqBChE inhibitory activities of the compounds under study were evaluated following the Ellman’s method [1, 2]. Briefly, a mixture containing sodium phosphate buffer, enzyme (final concentration: eeAChE 0.05 U/mL and eeBChE 0.05 U/mL), DTNB (final concentration: 400 µM) and the test compounds/reference inhibitors were preincubated for 5 minutes at 30 °C in a 96-well microplate (BRANDplates, pureGradeTM, BRAND GMBH, Wertheim, Germany). In control experiments, sodium phosphate buffer was used instead of the
(§5) ºC in a microplate reader (BioTek Synergy HT from BioTek Instruments, Winooski, VT, USA).
(§6) The rates of the substrate enzymatic hydrolysis were determined, normalized and plotted against the respective inhibitor concentration. IC50 values were obtained from the dose-response curves
(§7) and were expressed as mean ± standard deviation. IC50 values were determined in at least three
(§8) independent experiments, each performed at least in triplicates.

[3] = test system: differentiated SH-SY5Y cells; assay: Neutral red (NR) uptake assay (cytotoxicity); type: cell-based, human; conditions: 24 h, increasing concentrations up to 100 µM
Description: To avoid phenotypic changes, the cells used for all experiments were taken between 19th and 28th passages. Cells were differentiated as described previously by Fernandes et al. [6]. Briefly, SH-SY5Y cells were seeded onto 96-well plates at a density of 25,000 cells/cm2 in cell culture medium with trans-retinoic acid (RA) (final concentration of 10 µM) and incubated for 3 days at
The neutral red (NR) uptake assay is based on the ability of viable cells to incorporate the supravital dye NR and retain it inside the lysosomes [11]. NR uptake assay was performed as previously described by Fernandes et al. [12] Briefly, after the 24 h incubation periods with the test compounds, the cell culture medium was removed and NR solution (50 mg/mL) in fresh cell culture medium was added. Differentiated SH-SY5Y cells and Caco-2 cells were incubated for 2
multiwell microplate reader (PowerWave XS from BioTek Instruments). The results were
expressed as the percentage of NR uptake relative to that of the control (non-treated) cells [NR
uptake (% of control)] ± standard error mean (SEM) of at least three independent experiments.
Stock solutions of the test compounds (10 µM) were prepared in DMSO and diluted in

[4] = test system: differentiated SH-SY5Y cells; assay: Resazurin reduction assay (cytotoxicity); type: cell-based, human; conditions: 24 h, concentrations up to 100 µM
Description: For cytotoxicity studies, differentiated SH-SY5Y cells were incubated with increasing concentrations of the test compounds (0.20–100 µM) for 24 h. Controls were treated with culture media containing 0.1% DMSO. Cell viability was estimated using two different methods: resazurin reduction assay and NR uptake assay. […]
days. The cultures were passaged once a week by trypsinization (0.25 % trypsin/1 mM EDTA).
To avoid phenotypic changes, the cells used for all experiments were taken between 19th and 28th passages. Cells were differentiated as described previously by Fernandes et al.. Briefly, SH-SY5Y cells were seeded onto 96-well plates at a density of 25,000 cells/cm2 in cell culture medium with trans-retinoic acid (RA) (final concentration of 10 µM) and incubated for 3 days at 37 °C in a humidified, 5% CO2−95% air atmosphere. The cell culture medium was then removed and replaced with medium supplemented with 12-O-tetradecanoylphorbol-13-acetate (TPA) (final concentration 80 nM), and cells were incubated for 3 days. Stock solutions of RA (10 mM) and TPA (80 µM) were prepared in DMSO.
1.5.3. Cytotoxicity assays
1.5.3.1. Resazurin reduction assay
Resazurin is a non-fluorescent, non-toxic water-soluble dye able to permeate through cell […]
highly fluorescent resorufin [8, 9]. Since the conversion of resazurin into resorufin occurs mostly in mitochondria, the amount of resorufin produced can be used as indicator of metabolic activity. The quantity of resorufin production is proportional to the number of viable cells in culture and can be quantified fluorometrically or colorimetrically.
Resazurin reduction assay was performed as previously described by Fernandes et al..
Briefly, after the 24 h incubation periods with the test compounds, the cell culture medium was removed and replaced with fresh culture medium with resazurin (10 μg/mL) prepared in cell culture medium. Differentiated SH-SY5Y cells were incubated for 2 h at 37 °C in a humidified 5% CO2−95% air atmosphere. Then, the fluorescence was read in a multiwell microplate reader (PowerWave XS from BioTek Instruments, Vermont, US), using an excitation wavelength of 540 nm and an emission wavelength of 590 nm. The results were expressed as the percentage of resazurin reduction relative to that of the control (non-treated) cells [resazurin reduction (% of […]
1.5.3.2. Neutral red uptake assay
The neutral red (NR) uptake assay is based on the ability of viable cells to incorporate the supravital dye NR and retain it inside the lysosomes. NR uptake assay was performed as previously described by Fernandes et al. Briefly, after the 24 h incubation periods with the test compounds, the cell culture medium was removed and NR solution ([…]) in fresh cell culture medium was added. Differentiated SH-SY5Y cells and Caco-2 cells were incubated for 2 h and 1 h, respectively, at 37 °C in a humidified, 5% CO2−95% air atmosphere. Then, the cell culture medium was removed and replaced by ethanol absolute/distilled water (1:1) with 5 % acetic acid to liberate the dye from the viable cells. The absorbance was measured at 540 nm in a […]

[5] = Oxygen radical absorbance capacity (ORAC-FL) assay; conditions: for ORAC-FL Index: relative Trolox equivalent ORAC value
[6] = molecular target: T2, eeAChE (electric eel acetylcholinesterase) (Electrophorus electricus, UniProt O42275); assay: eeAChE inhibition, Ellman's method; type: biochemical
T2 construct: Eel acetylcholinesterase (eeAChE, E.C. 3.1.1.7, from Electrophorus electricus); purchased Sigma Aldrich
T2 sequence (O42275 24-633): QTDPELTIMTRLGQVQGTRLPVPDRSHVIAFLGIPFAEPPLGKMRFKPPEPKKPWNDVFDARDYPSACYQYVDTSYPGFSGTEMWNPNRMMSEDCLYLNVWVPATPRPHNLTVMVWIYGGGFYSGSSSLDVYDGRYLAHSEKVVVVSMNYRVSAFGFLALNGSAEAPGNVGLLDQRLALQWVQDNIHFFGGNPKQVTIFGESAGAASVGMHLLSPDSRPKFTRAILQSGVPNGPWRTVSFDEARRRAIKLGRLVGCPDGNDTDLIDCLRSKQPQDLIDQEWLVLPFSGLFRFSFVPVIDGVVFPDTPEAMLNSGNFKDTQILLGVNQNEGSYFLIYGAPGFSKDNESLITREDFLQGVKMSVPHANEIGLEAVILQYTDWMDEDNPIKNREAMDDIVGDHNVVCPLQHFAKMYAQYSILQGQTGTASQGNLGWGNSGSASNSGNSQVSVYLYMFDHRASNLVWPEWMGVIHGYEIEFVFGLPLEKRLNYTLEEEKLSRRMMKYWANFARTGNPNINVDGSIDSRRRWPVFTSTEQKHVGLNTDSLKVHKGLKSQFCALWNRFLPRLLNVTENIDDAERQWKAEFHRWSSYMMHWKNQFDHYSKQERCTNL
Description: as §1, §2, §3, §4, §5, §6, §7, §8

[7] = Chromatographic hydrophobicity index by gradient RP-HPLC at pH 2.3
Description: Chromatographic hydrophobicity indexes (CHIs) at pH 2.3 were determined using an experimental protocol described elsewhere [45, 46] and included in the supplementary information.
Evaluation of the chromatographic hydrophobicity index
Chromatographic hydrophobicity indexes (CHIs) values were determined using the
retention times (tR) of samples and a mixture of reference compounds. The data was acquired on
a Shimadzu high-performance liquid chromatograph SPD-M20A system (Shimadzu, Kyoto,
Japan) with a Luna C18 (2) column (Phenomenex, CA, USA) 150×4.6 mm, 5 µm. In CHI
determinations at pH 2.3, mobile phase A was aqueous solution of acetic acid 1 % (v/v) (pH 2.3),
and mobile phase B was acetonitrile. The following gradient program was applied: 1 mL/min
Calibration plots were obtained using a mixture of the following compounds:
paracetamol, theophylline, caffeine, benzimidazole, colchicine, carbamazepine, indole,
propiophenone, butyrophenone, valerophenone, and heptanophenone (Table S1, Figure S2).
hydrophobicity index (CHI) values were calculated as previously described [13, 14].

[8] = molecular target: T3, hMAO-A (Homo sapiens, UniProt P21397); assay: hMAO-A inhibition, kynuramine substrate; type: biochemical
T3 construct: purchased Sigma Aldrich; host or cells: insect cells (BTI-TN-5B1-4), baculovirus
T3 sequence (P21397 1-527): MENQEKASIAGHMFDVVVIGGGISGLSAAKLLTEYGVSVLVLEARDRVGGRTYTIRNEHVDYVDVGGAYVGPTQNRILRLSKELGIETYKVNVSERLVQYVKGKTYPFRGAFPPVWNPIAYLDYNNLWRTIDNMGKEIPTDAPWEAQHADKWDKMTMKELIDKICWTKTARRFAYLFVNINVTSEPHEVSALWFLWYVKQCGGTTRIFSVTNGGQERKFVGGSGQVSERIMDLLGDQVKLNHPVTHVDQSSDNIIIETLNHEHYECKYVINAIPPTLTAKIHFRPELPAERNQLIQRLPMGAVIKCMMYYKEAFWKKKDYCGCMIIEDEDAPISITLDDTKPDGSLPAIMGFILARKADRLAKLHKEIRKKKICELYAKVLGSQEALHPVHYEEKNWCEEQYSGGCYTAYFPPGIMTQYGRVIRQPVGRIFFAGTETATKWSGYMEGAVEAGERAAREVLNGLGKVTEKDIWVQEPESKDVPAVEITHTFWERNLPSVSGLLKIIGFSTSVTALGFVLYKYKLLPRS
Description: (§9) The inhibitory activity of lipophilic TPP^+ cations on hMAO-A and hMAO-B was studied using an experimental protocol described elsewhere [29, 40]
(§10) Evaluation of human monoamine oxidase (hMAO) inhibitory activity The human monoamine oxidase (hMAO) inhibitory outline was assessed in microsomal MAO isoforms prepared from insect cells (BTI-TN-5B1-4) infected with recombinant baculovirus containing cDNA inserts for hMAO-A or hMAO-B an d by measuring the enzymatic conversion rates of kynuramine into 4-hydroxyquinoline. The appropriate amounts of hMAO-A and hMAO-B were adjusted to obtain, in our experimental conditions, the same maximum
(§11) All assays were performed in sodium phosphate buffer solution 50 mM pH 7.4.
(§12) The compounds under study and reference inhibitors were pre-incubated at 37 °C for 10
(§13) concentration: 2×Km) in 96-well microplates (BRANDplates, pureGradeTM, BRAND GMBH, Wertheim, Germany). Then, the reaction was started with the addition of hMAO-A or hMAO-B.
(§14) Initial velocities were determined spectrophotometrically in a microplate reader (BioTek Synergy HT from BioTek Instruments, Winooski, VT, USA) at 37 °C by measuring the formation of 4-
(§15) The initial velocities, obtained from the linear phase of product formation, were normalized and plotted against the respective inhibitor concentration. IC50 values were obtained from dose-response curves and were expressed as mean ± standard deviation. IC50 values were determined from at least three independent experiments, each performed in triplicate.

[9] = parameters: method as in Teixeira et al. [19],[20]; conditions: ref Teixeira et al. [19],[20]; cited from earlier work
[10] = molecular target: T4, hMAO-B (Homo sapiens, UniProt P27338); assay: biochemical; parameters: purchased Sigma Aldrich; host or cells: insect cells (BTI-TN-5B1-4), baculovirus
T4 sequence (P27338 1-520): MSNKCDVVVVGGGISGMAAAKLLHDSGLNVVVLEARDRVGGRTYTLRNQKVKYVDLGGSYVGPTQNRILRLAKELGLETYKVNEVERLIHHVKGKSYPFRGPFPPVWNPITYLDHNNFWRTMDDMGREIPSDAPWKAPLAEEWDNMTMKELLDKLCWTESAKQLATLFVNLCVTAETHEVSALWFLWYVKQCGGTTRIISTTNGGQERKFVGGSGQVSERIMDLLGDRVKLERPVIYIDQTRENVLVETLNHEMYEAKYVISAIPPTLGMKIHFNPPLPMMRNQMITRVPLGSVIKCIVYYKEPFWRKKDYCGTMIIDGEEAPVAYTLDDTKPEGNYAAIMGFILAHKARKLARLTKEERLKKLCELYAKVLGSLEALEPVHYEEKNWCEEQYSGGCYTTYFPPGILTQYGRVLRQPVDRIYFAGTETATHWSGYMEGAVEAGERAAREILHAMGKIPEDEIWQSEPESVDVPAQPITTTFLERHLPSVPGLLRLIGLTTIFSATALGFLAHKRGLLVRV
Description: as §9, §10, §11, §12, §13, §14, §15

[11] = molecular target: T4, hMAO-B; conditions: read-out: IC50 hMAO-B; ref Chavarria et al. [29]; cited from earlier work
[12] = molecular target: T3, hMAO-A; parameters: method as in Chavarria et al. [29]; conditions: read-out: IC50 hMAO-A; ref Chavarria et al. [29]; cited from earlier work
[13] = test system: differentiated SH-SY5Y cells; conditions: at concentrations up to 50 µM; ref [58]; cited from earlier work
[14] = molecular target: T1, eqBChE (equine butyrylcholinesterase); parameters: method as in Benfeito et al. [22]; conditions: ref Benfeito et al. [22]; cited from earlier work

## COc1cc2c(c(OC)c1OC)-c1ccc(OC)c(=O)cc1[C@@H](NC(C)=O)CC2 [Colchicine]
[1]
  CHI0 pH 2.3: 43.9

## CCCCCCC(=O)c1ccccc1 [Heptanophenone]
[1]
  CHI0 pH 2.3: 112.1

## CCCCC(=O)c1ccccc1 [Valerophenone]
[1]
  CHI0 pH 2.3: 96.4

## O=C(/C=C/c1ccc(O)c(O)c1)NCCCCCCCC[P+](c1ccccc1)(c1ccccc1)c1ccccc1 [AntiOXCIN3, reference compound]
[2]
  SI (1): eqBChE selectivity index = IC50(eeAChE)/IC50(eqBChE): 16
[2]; read-out: IC50 eqBChE
  IC50: 0.325 ± 0.09 µM
[3]
  effect on NR uptake: did not markedly affect
[4]
  effect on resazurin reduction: did not markedly affect
[5]
  ORAC-FL Index: 2.6 ± 0.1
[6]
  IC50: 5.08 ± 0.22 µM
[7]
  CHI: 41.4
[8]
  IC50: > 10 µM
  inhibition at 10 µM: < 50%
[9]
  Ep (redox potential): 164 mV and 164 ^a mV
[10]
  IC50: > 10 µM
  inhibition at 10 µM: < 50%

## O=C(C=CC=Cc1ccc2c(c1)OCO2)N1CCCCC1 [Compound 1, 1-[5-(1,3-benzodioxol-5-yl)-1-oxo-2,4-pentadienyl]piperidine]
[5]; ORAC-FL
  ROO• radical scavenging: unable to scavenge ROO• radicals
[11]
  IC50: 1.05 ± 0.08 µM
[7]
  CHI: 73.4
[12]
  IC50: > 10 µM
[13]
  cytotoxic effects: did not exhibit cytotoxic effects

## Cn1c(=O)c2c(ncn2C)n(C)c1=O [Caffeine]
[1]
  CHI0 pH 2.3: 23.41

## NC(=O)N1c2ccccc2C=Cc2ccccc21 [Carbamazepine]
[1]
  CHI0 pH 2.3: 60.42

## Cn1c(=O)c2[nH]cnc2n(C)c1=O [Theophyline]
[1]
  CHI0 pH 2.3: 17.9

## O=C(/C=C/c1ccc(O)c(O)c1)NCCCCCC[P+](c1ccccc1)(c1ccccc1)c1ccccc1 [AntiOXCIN2, reference compound]
[3]
  effect on NR uptake: did not markedly affect
[4]
  effect on resazurin reduction: did not markedly affect
[14]
  IC50: 0.124 ± 0.007 µM
  SI (1): eqBChE selectivity index = IC50(eeAChE)/IC50(eqBChE): 51 ^d
[5]
  ORAC-FL Index: 2.8 ± 0.1
[7]
  CHI: 37.9
[8]
  IC50: > 10 µM
  inhibition at 10 µM: < 50%
[9]
  Ep (redox potential): 166 mV and 166 ^a mV
[10]
  IC50: > 10 µM
  inhibition at 10 µM: < 50%

## CCC(=O)c1ccccc1 [Propiophenone]
[1]
  CHI0 pH 2.3: 77.4

## c1ccc2[nH]ccc2c1 [Indole]
[1]
  CHI0 pH 2.3: 72.1

## c1ccc2[nH]cnc2c1 [Benzimidazole]
[1]
  CHI0 pH 2.3: 6.30

## CCCC(=O)c1ccccc1 [Butyrophenone]
[1]
  CHI0 pH 2.3: 87.3

## CC(=O)Nc1ccc(O)cc1 [Paracetamol]
[1]
  CHI0 pH 2.3: 18.77

Source: PMC7926627, “Fine-Tuning the Biological Profile of Multitarget Mitochondriotropic Antioxidants for Neurodegenerative Diseases” (Antioxidants, 2021)
